# “And” between values parts separate entries of the source, which are not always exact repeats. Equal entries are not always repeated.
# Columns and labels:
# [1] = test system: preferentially upregulated genes in LV, SP, LN; experiment: Z-score-based differential gene expression analysis (adjuvant group- or adjuvant-associated genes, 40 module mapping, TargetMine annotation); assay type: in vivo, C57BL/6 mice
# Procedure, shortened: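 Per-sample fold-change values converted to gene-wise z-scores within each organ's data set, then triplicate z-scores summed per adjuvant. Genes with summed score >3 taken as preferentially expressed; gene groups defined by combined per-adjuvant z-score thresholds (z>1 to z>3) specific to each organ.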
# [2] = test system: inguinal lymph nodes (LN); experiment: Whole organ transcriptome (GeneChip microarray) of draining inguinal lymph nodes 6 h after adjuvant administration: sDEGs, gene modules, hierarchical clustering; assay type: in vivo, C57BL/6 mice; conditions: lymph node; on adjuvant group (cluster) in LN: key: G1 (interferon signaling); G2 (metabolism of lipids and lipoproteins); G3 (response to stress); G4 (response to wounding); G5 (phosphate-containing compound metabolic process); G6 (phagosome)
# [3] = ID, LN, samples x1-x3, Module#(LN) 40
# [4] = liver (LV), gene group G1, module 20, individual mice x1-x3, route ID/IP/IN
substance,measurement,setting,value
"D35: A class CpG ODN (5′-GGTGCATCGATGCAGGGGGG-3′), TLR9 ligand (DNA GGTGCATCGATGCAGGGGGG; chemistry not given here)","z sum, 1444615_x_at Runx1t1","[1]; ID, LN, Module#(LN) 1",3.519
same,"z sum, 1420894_at Tgfbr1","[1]; ID, LN, Module#(LN) 3",3.333
same,"z sum, 1460069_at Smc6","[1]; ID, LN, Module#(LN) 7",3.274
same,"z sum, 1440371_at ---","[1]; ID, LN, Module#(LN) 8",3.29
same,"z sum, 1456346_at ---","[1]; ID, LN, Module#(LN) 9",3.455
same,"z sum, 1425105_at Rbp3","[1]; ID, LN, Module#(LN) 10",3.333
same,"z sum, 1455796_x_at Olfm1","[1]; ID, LN, Module#(LN) 11",3.262
same,"z sum, 1443302_at ---","[1]; ID, LN, Module#(LN) 12",3.407
same,"z sum, 1442518_at C030044O21Rik","[1]; ID, LN, Module#(LN) 14",3.546
same,"z sum, 1419486_at Foxc1","[1]; ID, LN, Module#(LN) 19",3.344
same,"z sum, 1441344_at Erlin1","[1]; ID, LN, Module#(LN) 21",3.171
same,"z sum, 1423611_at Alpl","[1]; ID, LN, Module#(LN) 24",3.194
same,"z sum, 1448179_at Usmg5","[1]; ID, LN, Module#(LN) 24",3.461
same,"z sum, 1458457_at ---","[1]; ID, LN, Module#(LN) 26",3.147
same,"z sum, 1450377_at Thbs1","[1]; ID, LN, Module#(LN) 28",3.002
same,"z sum, 1443853_x_at Sfmbt1","[1]; ID, LN, Module#(LN) 32",3.51
same,"z sum, 1443392_at Trpv1","[1]; ID, LN, Module#(LN) 33",3.184
same,"z sum, 1440475_at AW011738","[1]; ID, LN, Module#(LN) 36",3.038
same,"z sum, 1416380_at Mov10","[1]; ID, LN, Module#(LN) 37",3.277
same,"z sum, 1421008_at Rsad2","[1]; ID, LN, Module#(LN) 37",3.221
same,"z sum, 1421009_at Rsad2","[1]; ID, LN, Module#(LN) 37",3.209
same,"z sum, 1424339_at Oasl1","[1]; ID, LN, Module#(LN) 37",3.198
same,"z sum, 1426013_s_at Plekha4","[1]; ID, LN, Module#(LN) 37",3.228
same,"z sum, 1436058_at Rsad2","[1]; ID, LN, Module#(LN) 37",3.281
same,"z sum, 1436472_at Slfn9","[1]; ID, LN, Module#(LN) 37",3.595
same,"z sum, 1447241_at ---","[1]; ID, LN, Module#(LN) 37",3.033
same,"z sum, 1416039_x_at Cyr61","[1]; ID, LN, Module#(LN) 39",3.015
same,"z sum, 1418191_at Usp18","[1]; ID, LN, Module#(LN) 40",3.035
same,"z sum, 1418293_at Ifit2","[1]; ID, LN, Module#(LN) 40",3.02
same,"z sum, 1418580_at Rtp4","[1]; ID, LN, Module#(LN) 40",3.028
same,"z sum, 1419603_at Ifi204","[1]; ID, LN, Module#(LN) 40",3.659
same,"z sum, 1421911_at Stat2","[1]; ID, LN, Module#(LN) 40",3.137
same,"z sum, 1422006_at Eif2ak2","[1]; ID, LN, Module#(LN) 40",3.279
same,"z sum, 1422141_s_at Csprs///Gm15433///Gm2666///Gm7609///LOC100041903///LOC100503923","[1]; ID, LN, Module#(LN) 40",3.074
same,"z sum, 1423555_a_at Ifi44","[1]; ID, LN, Module#(LN) 40",3.551
same,"z sum, 1424444_a_at 1600014C10Rik","[1]; ID, LN, Module#(LN) 40",3.108
same,"z sum, 1424607_a_at Gm4354","[1]; ID, LN, Module#(LN) 40",3.422
same,"z sum, 1424609_a_at Cwc22///Gm4354///Xdh","[1]; ID, LN, Module#(LN) 40",3.429
same,"z sum, 1431095_a_at Herc6","[1]; ID, LN, Module#(LN) 40",3.065
same,"z sum, 1432417_a_at Tspan2","[1]; ID, LN, Module#(LN) 40",3.906
same,"z sum, 1439886_at ---","[1]; ID, LN, Module#(LN) 40",3.151
same,"z sum, 1450403_at Stat2","[1]; ID, LN, Module#(LN) 40",3.389
same,"z sum, 1451777_at Ddx60","[1]; ID, LN, Module#(LN) 40",3.02
same,"z sum, 1452349_x_at Ifi205///Mnda","[1]; ID, LN, Module#(LN) 40",3.123
same,"z sum, 1453196_a_at Oasl2","[1]; ID, LN, Module#(LN) 40",3.123
same,"z sum, 1453299_a_at Pnp///Pnp2","[1]; ID, LN, Module#(LN) 40",3.12
same,"z sum, 1453757_at Herc6","[1]; ID, LN, Module#(LN) 40",3.183
same,"z sum, 1456164_at AW011738","[1]; ID, LN, Module#(LN) 40",3.347
same,"z sum, 1457035_at Al607873","[1]; ID, LN, Module#(LN) 40",3.377
same,"z-score of fold change, 1460069_at Smc6","[1]; ID, LN, samples x1-x3, Module#(LN) 7",0.716 and 1.173 and 1.385
same,"z-score of fold change, 1442518_at C030044O21Rik","[1]; ID, LN, samples x1-x3, Module#(LN) 14",0.953 and 1.161 and 1.432
same,"z-score of fold change, 1423611_at Alpl","[1]; ID, LN, samples x1-x3, Module#(LN) 24",0.707 and 1.244
same,"z-score of fold change, 1436472_at Slfn9","[1]; ID, LN, samples x1-x3, Module#(LN) 37",1.143 and 1.047 and 1.405
same,"z-score of fold change, 1419603_at Ifi204",[1]; [3],1.185 and 1.269 and 1.205
same,"z-score of fold change, 1422006_at Eif2ak2",[1]; [3],1.174 and 1.037 and 1.068
same,"z-score of fold change, 1424607_a_at Gm4354",[1]; [3],1.005 and 1.314 and 1.103
same,"z-score of fold change, 1424609_a_at Cwc22///Gm4354///Xdh",[1]; [3],1.178 and 1.294 and 0.958
same,"z-score of fold change, 1432417_a_at Tspan2",[1]; [3],1.133 and 1.404 and 1.369
same,"z-score of fold change, 1451777_at Ddx60",[1]; [3],0.83 and 1.215 and 0.975
same,"z-score of fold change, 1457035_at Al607873",[1]; [3],0.908 and 1.231 and 1.239
same,interferon induction relative to adjuvants targeting the same receptor,"[1]; LN, z-scores and 40 module mapping",relatively stronger interferon inducer than K3 or K3SPG
same,"Z score of gene expression, Adar (probe 1425405_a_at)",[1]; [4],−0.1 and −0.3 (2×)
same,"Z score of gene expression, Adar (probe 1434268_at)",[1]; [4],−0.3 (2×) and −0.4
same,"Z score of gene expression, Ddx58 (probe 1436562_at)",[1]; [4],−0.4 (2×) and −0.1
same,"Z score of gene expression, Ddx58 (probe 1456890_at)",[1]; [4],−0.3 (2×) and −0.4
same,"Z score of gene expression, Eif2ak2 (probe 1422005_at)",[1]; [4],−0.5 and −0.4 (2×)
same,"Z score of gene expression, G3bp2 (probe 1421323_a_at)",[1]; [4],−0.5 and −0.4 (2×)
same,"Z score of gene expression, Gm9706///Isg15 (probe 1431591_s_at)",[1]; [4],−0.5
same,"Z score of gene expression, H2-T10///H2-T22///H2-T9 (probe 1449875_s_at)",[1]; [4],−0.4 and −0.3 and −0.2
same,"Z score of gene expression, Ifih1 (probe 1426276_at)",[1]; [4],−0.5 (2×) and −0.3
same,"Z score of gene expression, Ifit1 (probe 1449025_at)",[1]; [4],−0.5
same,"Z score of gene expression, Ifit1 (probe 1450783_at)",[1]; [4],−0.5 and −0.4 (2×)
same,"Z score of gene expression, Irf7 (probe 1417244_a_at)",[1]; [4],−0.3 (2×) and −0.2
same,"Z score of gene expression, Irgm1 (probe 1418825_at)",[1]; [4],−0.5 (2×) and −0.3
same,"Z score of gene expression, Mndal (probe 1426906_at)",[1]; [4],−0.5 and −0.4 and −0.3
same,"Z score of gene expression, Pml (probe 1448757_at)",[1]; [4],−0.7 and −0.4 and −0.3
same,"Z score of gene expression, Pml (probe 1456103_at)",[1]; [4],−0.4 and −0.3 (2×)
same,"Z score of gene expression, Rnf213 (probe 1455500_at)",[1]; [4],−0.4
same,"Z score of gene expression, Rsad2 (probe 1436058_at)",[1]; [4],−0.5
same,"Z score of gene expression, Shisa5 (probe 1423986_a_at)",[1]; [4],−0.5 and −0.6 and −0
same,"Z score of gene expression, Shisa5 (probe 1437503_a_at)",[1]; [4],−0.4 (2×) and 0.15
same,"Z score of gene expression, Stat1 (probe 1450033_a_at)",[1]; [4],−0.5 (2×) and −0.4
same,"Z score of gene expression, Stat1 (probe 1450034_at)",[1]; [4],−0.5
same,"Z score of gene expression, Tdrd7 (probe 1426716_at)",[1]; [4],−0.4 (2×) and −0.1
same,"Z score of gene expression, Tor1aip2 (probe 1418115_s_at)",[1]; [4],−0.4 and −0.6 and −0.1
same,"Z score of gene expression, Tor1aip2 (probe 1418116_at)",[1]; [4],−0.4 and −0.5 and −0.2
same,"Z score of gene expression, Tor1aip2 (probe 1435526_at)",[1]; [4],−0.4 (2×) and −0.5
same,"Z score of gene expression, Trim12a (probe 1437432_a_at)",[1]; [4],−0.4 (2×) and −0.5
same,"Z score of gene expression, Uba7 (probe 1426970_a_at)",[1]; [4],−0.8 and −0.6 and −0.5
same,adjuvant group (cluster) in LN,[2]; hierarchical clustering,G5
same,"Number of gene probes with statistically significant changes (sDEGs), LN, Down","[2]; i.d. administration, fold change <0.667, p<0.01, customized PA call=1, 6 h after adjuvant",12
same,"Number of gene probes with statistically significant changes (sDEGs), LN, Up","[2]; i.d. administration, fold change >1.5, p<0.01, customized PA call=1, 6 h after adjuvant",69

# Source: US20230021483A1, “[…] […] METHOD AND CLASSIFICATION OF PHARMACEUTICAL COMPONENTS BY USING TRANSCRIPTOMES” (National Institutes of Biomedical Innovation, Health and …, priority 2016, published 2023)
